Reference: ChEMBL document CHEMBL6127056, “Novel mechanistic insights - A brand new Era for anti-HBV drugs” (Eur J Med Chem, 2024)
pEC50, pIC50: −log10 of the molar value. Each block holds one compound with its values, some of them ahead of it.

What was measured:
[1] = system: HepG2 2.2.15; assay: Cytotoxicity against human HepG2.2.15 cells assessed as reduction in cell viability by CellTiter-Blue reagent based analysis; type: functional
[2] = biological target: Triosephosphate isomerase (Homo sapiens, UniProt P60174); assay: Inhibition of TPI1 (unknown origin)
[3] = system: Hepatitis B virus; assay: Antiviral activity against HBV infected in human HepG2.117 cells assessed as reduction in intracellular DNA level by RT-qPCR analysis; type: functional, organism-based
[4] = biological target: Lysine-specific demethylase 5B (Homo sapiens, UniProt Q9UGL1); assay: Inhibition of KDM5B (unknown origin)
[5] = biological target: T1, Hepatic sodium/bile acid cotransporter (Homo sapiens, UniProt Q14973); assay: Inhibition of NTCP (unknown origin)
T1 sequence (Q14973 whole entry): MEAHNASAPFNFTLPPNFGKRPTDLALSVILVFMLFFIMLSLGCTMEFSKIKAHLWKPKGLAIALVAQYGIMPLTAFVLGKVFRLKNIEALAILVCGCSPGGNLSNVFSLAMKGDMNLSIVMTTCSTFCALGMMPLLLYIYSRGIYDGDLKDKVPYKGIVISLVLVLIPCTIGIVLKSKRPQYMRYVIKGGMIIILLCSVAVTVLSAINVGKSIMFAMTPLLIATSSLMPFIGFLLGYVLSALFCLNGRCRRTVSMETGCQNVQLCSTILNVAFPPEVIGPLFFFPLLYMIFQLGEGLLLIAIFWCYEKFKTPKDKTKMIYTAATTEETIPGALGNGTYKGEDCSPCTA

[6] = system: Hepatitis B virus; assay: Antiviral activity against HBV infected in human Primary hepatocyte assessed as reduction in HBV replication; type: functional, organism-based
[7] = system: Hepatitis B virus; assay: Antiviral activity against HBV infected in human HepAD38 cells assessed as inhibition of viral replication; type: functional, organism-based
[8] = system: Hepatitis B virus; assay: Antiviral activity against Hepatitis B virus assessed as inhibition of HBV DNA replication; type: functional, organism-based
[9] = system: Hepatitis B virus; assay: Antiviral activity against Hepatitis B virus ayw1 infected in human HepG2 2.2.15 cells assessed as reduction in viral DNA replication incubated for 6 days by qPCR analysis; type: functional, organism-based; conditions: ayw1, HepG2 2.2.15, 144 h
[10] = system: Hepatitis B virus; assay: Antiviral activity against HBV infected in human HepDES19 cells assessed as inhibition of extracellular HBV DNA by qPCR analysis; type: functional, organism-based
[11] = Inhibition of HBV RNA polymerase; parameters: species or system Hepatitis B virus
[12] = biological target: SRSF protein kinase 1 (Homo sapiens, UniProt Q96SB4); assay: Inhibition of SRPK-1 (unknown origin)
SRSF protein kinase 1, sequence (Q96SB4 whole entry): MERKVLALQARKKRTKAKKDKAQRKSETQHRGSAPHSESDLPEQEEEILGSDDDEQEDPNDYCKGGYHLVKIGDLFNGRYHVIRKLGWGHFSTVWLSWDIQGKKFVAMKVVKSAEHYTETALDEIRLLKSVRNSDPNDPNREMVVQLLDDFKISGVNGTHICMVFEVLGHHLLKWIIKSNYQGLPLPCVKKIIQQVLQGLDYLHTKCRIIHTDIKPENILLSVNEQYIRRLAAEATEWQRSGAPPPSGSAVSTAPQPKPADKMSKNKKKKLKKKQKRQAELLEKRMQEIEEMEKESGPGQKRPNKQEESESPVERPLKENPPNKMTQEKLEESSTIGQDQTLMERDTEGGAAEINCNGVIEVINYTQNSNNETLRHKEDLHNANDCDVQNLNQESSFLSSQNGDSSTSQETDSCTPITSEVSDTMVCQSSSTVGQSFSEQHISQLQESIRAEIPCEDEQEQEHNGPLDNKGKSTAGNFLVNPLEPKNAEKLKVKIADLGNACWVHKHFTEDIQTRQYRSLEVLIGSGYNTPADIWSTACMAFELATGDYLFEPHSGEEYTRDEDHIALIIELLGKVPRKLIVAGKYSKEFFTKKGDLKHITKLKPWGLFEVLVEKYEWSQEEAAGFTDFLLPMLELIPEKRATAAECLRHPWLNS

Triosephosphate isomerase, sequence (P60174 whole entry): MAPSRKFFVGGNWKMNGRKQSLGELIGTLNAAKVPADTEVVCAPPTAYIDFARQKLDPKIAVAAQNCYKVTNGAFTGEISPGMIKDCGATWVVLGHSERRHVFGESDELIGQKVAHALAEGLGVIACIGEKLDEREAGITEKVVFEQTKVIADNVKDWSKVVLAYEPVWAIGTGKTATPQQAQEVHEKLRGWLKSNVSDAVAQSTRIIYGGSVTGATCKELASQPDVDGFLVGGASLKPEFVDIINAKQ
Lysine-specific demethylase 5B, sequence (Q9UGL1 whole entry): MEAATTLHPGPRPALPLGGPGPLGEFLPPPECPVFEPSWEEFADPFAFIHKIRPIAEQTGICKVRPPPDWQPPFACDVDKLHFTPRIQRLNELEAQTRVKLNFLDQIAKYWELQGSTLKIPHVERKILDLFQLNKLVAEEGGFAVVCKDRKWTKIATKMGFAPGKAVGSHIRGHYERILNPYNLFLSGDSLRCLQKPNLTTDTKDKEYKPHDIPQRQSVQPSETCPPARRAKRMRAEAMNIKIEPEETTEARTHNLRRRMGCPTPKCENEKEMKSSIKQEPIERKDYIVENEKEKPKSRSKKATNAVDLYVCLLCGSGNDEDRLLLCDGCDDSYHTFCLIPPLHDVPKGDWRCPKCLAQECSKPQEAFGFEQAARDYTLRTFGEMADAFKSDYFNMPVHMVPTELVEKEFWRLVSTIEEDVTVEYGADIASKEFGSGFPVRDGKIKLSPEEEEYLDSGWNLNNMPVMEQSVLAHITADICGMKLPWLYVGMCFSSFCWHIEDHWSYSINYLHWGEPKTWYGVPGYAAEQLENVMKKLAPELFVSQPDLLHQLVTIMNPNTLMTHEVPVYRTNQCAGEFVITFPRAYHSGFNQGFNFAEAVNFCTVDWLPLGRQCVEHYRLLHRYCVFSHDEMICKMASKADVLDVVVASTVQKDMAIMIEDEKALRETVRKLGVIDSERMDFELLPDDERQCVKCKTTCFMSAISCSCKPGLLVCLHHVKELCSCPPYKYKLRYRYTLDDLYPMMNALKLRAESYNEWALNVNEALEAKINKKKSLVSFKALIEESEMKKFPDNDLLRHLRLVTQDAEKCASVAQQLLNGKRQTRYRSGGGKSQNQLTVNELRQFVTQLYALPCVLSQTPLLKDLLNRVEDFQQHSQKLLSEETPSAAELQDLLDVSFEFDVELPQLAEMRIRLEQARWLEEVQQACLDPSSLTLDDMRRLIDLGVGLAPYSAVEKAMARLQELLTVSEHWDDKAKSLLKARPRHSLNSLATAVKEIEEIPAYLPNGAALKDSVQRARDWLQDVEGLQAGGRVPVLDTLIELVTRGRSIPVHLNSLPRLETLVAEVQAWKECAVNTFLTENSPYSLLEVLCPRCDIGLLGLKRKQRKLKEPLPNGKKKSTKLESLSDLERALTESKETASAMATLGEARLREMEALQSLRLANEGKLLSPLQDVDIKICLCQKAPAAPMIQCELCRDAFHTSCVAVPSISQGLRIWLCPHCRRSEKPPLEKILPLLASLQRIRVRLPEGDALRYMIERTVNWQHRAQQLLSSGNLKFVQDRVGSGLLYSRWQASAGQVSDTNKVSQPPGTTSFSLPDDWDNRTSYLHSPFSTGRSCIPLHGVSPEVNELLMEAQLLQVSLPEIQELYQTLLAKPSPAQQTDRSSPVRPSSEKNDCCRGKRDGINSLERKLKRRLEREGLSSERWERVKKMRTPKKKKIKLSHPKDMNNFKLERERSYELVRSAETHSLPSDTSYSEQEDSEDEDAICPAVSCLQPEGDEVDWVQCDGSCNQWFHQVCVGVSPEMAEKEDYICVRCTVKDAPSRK

SMILES: N#Cc1ccc(Cn2nc(-c3ccc(C(F)(F)F)nc3F)c3ccccc3c2=O)cc1
pIC50 [1]: 6.70

pIC50 [2]: 4.98
SMILES: C[C@]12CCCC[C@@H]1CC[C@@H]1[C@@H]2CC[C@]2(C)[C@@H]([C@H](O)CCc3ccc(F)cc3)CC[C@@H]12

pEC50 [3]: < 5.00
SMILES: Nc1ncnc2c1ncn2[C@@H]1OC[C@](F)(CO)[C@H]1CO

pIC50 [4]: 6.42
SMILES: CCN(CCN(C)C)C(=O)CNCc1cc(C(=O)O)ccn1

pIC50 [5]: 6.10
SMILES: C=C(C)[C@@H]1CC[C@]2(C(=O)NCc3cn([C@H]4c5cc6c(cc5[C@H](c5cc(OC)c(OC)c(OC)c5)[C@H]5C(=O)OC[C@@H]54)OCO6)nn3)CC[C@@]3(C)[C@]4(C)CC[C@H]5C(C)(C)[C@@H](O)CC[C@]5(C)[C@H]4CC[C@]3(C)[C@@H]12

pIC50 [2]: 6.21
SMILES: CC[C@H](C)C[C@H](C)C(=O)O[C@]1(C)C(=O)c2c(cc(O)c3c2C[C@@H](O)C[C@H]3C)[C@@](C)(O)C1=O

SMILES: O=c1cc(-c2ccccc2)oc2cc(O)cc(O)c12 [CHRYSIN]
pEC50 [6]: 4.65

pIC50 [5]: 7.15
SMILES: COc1cc([C@H]2c3cc4c(cc3[C@H](n3cc(CO[C@H]5CC[C@]6(C)[C@H]7CC=C8[C@@H]9CC(C)(C)CC[C@]9(C(=O)O)CC[C@@]8(C)[C@]7(C)CC[C@H]6C5(C)C)nn3)[C@H]3COC(=O)[C@H]23)OCO4)cc(OC)c1OC

pEC50 [7]: 4.81
SMILES: Cc1cc(/N=N/c2ccc(S(=O)(=O)Nc3ccccn3)cc2)c(N)cc1O

SMILES: CNC(=O)C1(NC(=O)C(=O)c2c(C)c(C(=O)Nc3ccc(F)c(F)c3)n3c2CCC3)CC(F)(F)C1
pEC50 [6]: 7.10

pEC50 [8]: < 5.00
SMILES: Cc1ccc2[nH]c(CCNc3nccc(-c4ccccn4)n3)nc2c1C

pEC50 [9]: 7.64
SMILES: COC(=O)C1=C(C)NC(c2ncc(F)cc2F)=N[C@H]1c1ccc(F)cc1Cl

pEC50 [10]: < 5.00
SMILES: CCOC(=O)C1=C(CN2CCN(C(C(=O)O)c3ccoc3)CC2)NC(c2nccs2)=NC1c1ccc(F)cc1Br (stereo not drawn)

pEC50 [10]: 7.62
SMILES: CCOC(=O)C1=C(CN2CCN(C(C(=O)O)c3cccc([N+](=O)[O-])c3)CC2)NC(c2nccs2)=NC1c1ccc(F)cc1Br (stereo not drawn)

pIC50 [11]: 5.72
SMILES: O=C(Nc1ccc2c(=O)c3cccc(F)c3oc2c1)c1ccccc1

pIC50 [11]: 3.55
SMILES: C[C@]12CC[C@@H]3c4ccc(OC(=O)c5ccccc5)cc4CC[C@H]3[C@@H]1CC[C@@H]2O [ESTRADIOL BENZOATE]

pIC50 [2]: 5.77
SMILES: CCCCCCCc1cc(OC(=O)c2c(CCCCCCC)cc(O)cc2O[C@H]2O[C@@H](CO)[C@H](O)[C@@H](O)[C@@H]2O)cc(O)c1C(=O)O

pEC50 [8]: < 5.00
SMILES: CCOC(=O)c1cc(-c2cc(C(=O)OCC)c3ccccc3n2)nc2ccccc12

pEC50 [8]: 5.00
SMILES: Cc1nc(-c2c(-c3ccccc3)ncn2Cc2cccc3[nH]ccc23)c[nH]1

pEC50 [7]: 7.47
SMILES: CCOC(=O)c1ccnc(CNCC(=O)N(CC)CCN(C)C)c1

pIC50 [2]: 5.96
SMILES: CCCCCCCCCc1cc(OC(=O)c2c(CCCCCCCCC)cc(O)cc2O[C@@H]2O[C@H](CO)[C@@H](O)[C@H](O)[C@H]2O)cc(O)c1C(=O)O

pEC50 [8]: 5.68
SMILES: C/C(=N\c1cccc(F)c1)c1c(C)cc(=O)n(O)c1O

SMILES: CCc1cc2c(cc1-c1cccc(S(=O)(=O)F)c1)C(C)(C)c1[nH]c3cc(C#N)ccc3c1C2=O
pIC50 [12]: 5.03
